This note sets out measurements from patent publication US20260060989A1, “Charged Ion Channel Blockers And Methods For Use” (Nocion Therapeutics, Inc., priority 2024, published 2026).

In assay [1] the target is T1, NaV1.7 (Homo sapiens, UniProt Q15858).
T1 construct: expressed in transfected cells; host or cells: Tetracycline-inducible cell line kept under hygromycin and blasticidin selection
In words: Whole cell patch clamp, internal block of NaV1.7 current (compound in intracellular solution). Type of assay: cell-based. To be noted: test concentration 0.32 μM; text says intracellular inhibition (compound in internal solution), 5 Hz stimulation; read-out: NaV1.7 Extracellular Inhibition. As for the experimental part: (§1) NaV1.7 was expressed upon induction with tetracycline. Cells were cultured in DMEM containing 10% dialyzed Fetal Bovine Serum (VWR, Radnor, PA), 1% Glutamax (VWR, Radnor, PA), 1% Penicillin-Streptomycin (VWR, Radnor, PA), 100 mg/L Hygromycin (Thermo Fisher Scientific, Waltham, MA and 5 mg/L Blasticidin (Alfa Aesar, Haverhill, MA). Cells were grown and maintained at 37° C. in a humidified environment containing 10% CO2 in air. Cells were detached from the culture flask for passage and harvested using 0.05% Trypsin-EDTA (Thermo Fisher Scientific, Waltham, MA). To induce NaV1.7, cells were induced with tetracycline (0.1-1 μg/mL, IBI Scientific, Peosta, IA) the day before recording and plated onto 24-well plates. Cells were washed with DPBS (VWR, Radnor, PA), trypsinized and then triturated five times in 10 mL of growth media to break apart cell aggregates. […]
(§2) Once the recording was started, the voltage protocol was run at 30 second intervals for 5 minutes to get a stable baseline. […] Currents were recorded using PatchMaster software with Heka EPC10 (HEKA Electronics, Lambrecht, Germany). […]
(§3) The data was plotted using the Patchmaster software (HEKA Electronics, Lambrecht, Germany) and analyzed by plotting the minimum current during the voltage step to −20 mV (peak inward current) as a function of time. […]

Assay [2] addresses T1, NaV1.7. Kind of assay: Whole cell patch clamp, external block of NaV1.7 current (compound in external solution). Type of assay: cell-based. As to conditions: test concentration 10 μM; compound applied in external solution for 5 minutes, 5 Hz stimulation; read-out: NaV1.7 Extracellular Inhibition. As for the experimental part:
as §1, §2, §3
For orientation: In patch-clamp work, channel activity is measured electrically.

T1 sequence (Q15858 whole entry): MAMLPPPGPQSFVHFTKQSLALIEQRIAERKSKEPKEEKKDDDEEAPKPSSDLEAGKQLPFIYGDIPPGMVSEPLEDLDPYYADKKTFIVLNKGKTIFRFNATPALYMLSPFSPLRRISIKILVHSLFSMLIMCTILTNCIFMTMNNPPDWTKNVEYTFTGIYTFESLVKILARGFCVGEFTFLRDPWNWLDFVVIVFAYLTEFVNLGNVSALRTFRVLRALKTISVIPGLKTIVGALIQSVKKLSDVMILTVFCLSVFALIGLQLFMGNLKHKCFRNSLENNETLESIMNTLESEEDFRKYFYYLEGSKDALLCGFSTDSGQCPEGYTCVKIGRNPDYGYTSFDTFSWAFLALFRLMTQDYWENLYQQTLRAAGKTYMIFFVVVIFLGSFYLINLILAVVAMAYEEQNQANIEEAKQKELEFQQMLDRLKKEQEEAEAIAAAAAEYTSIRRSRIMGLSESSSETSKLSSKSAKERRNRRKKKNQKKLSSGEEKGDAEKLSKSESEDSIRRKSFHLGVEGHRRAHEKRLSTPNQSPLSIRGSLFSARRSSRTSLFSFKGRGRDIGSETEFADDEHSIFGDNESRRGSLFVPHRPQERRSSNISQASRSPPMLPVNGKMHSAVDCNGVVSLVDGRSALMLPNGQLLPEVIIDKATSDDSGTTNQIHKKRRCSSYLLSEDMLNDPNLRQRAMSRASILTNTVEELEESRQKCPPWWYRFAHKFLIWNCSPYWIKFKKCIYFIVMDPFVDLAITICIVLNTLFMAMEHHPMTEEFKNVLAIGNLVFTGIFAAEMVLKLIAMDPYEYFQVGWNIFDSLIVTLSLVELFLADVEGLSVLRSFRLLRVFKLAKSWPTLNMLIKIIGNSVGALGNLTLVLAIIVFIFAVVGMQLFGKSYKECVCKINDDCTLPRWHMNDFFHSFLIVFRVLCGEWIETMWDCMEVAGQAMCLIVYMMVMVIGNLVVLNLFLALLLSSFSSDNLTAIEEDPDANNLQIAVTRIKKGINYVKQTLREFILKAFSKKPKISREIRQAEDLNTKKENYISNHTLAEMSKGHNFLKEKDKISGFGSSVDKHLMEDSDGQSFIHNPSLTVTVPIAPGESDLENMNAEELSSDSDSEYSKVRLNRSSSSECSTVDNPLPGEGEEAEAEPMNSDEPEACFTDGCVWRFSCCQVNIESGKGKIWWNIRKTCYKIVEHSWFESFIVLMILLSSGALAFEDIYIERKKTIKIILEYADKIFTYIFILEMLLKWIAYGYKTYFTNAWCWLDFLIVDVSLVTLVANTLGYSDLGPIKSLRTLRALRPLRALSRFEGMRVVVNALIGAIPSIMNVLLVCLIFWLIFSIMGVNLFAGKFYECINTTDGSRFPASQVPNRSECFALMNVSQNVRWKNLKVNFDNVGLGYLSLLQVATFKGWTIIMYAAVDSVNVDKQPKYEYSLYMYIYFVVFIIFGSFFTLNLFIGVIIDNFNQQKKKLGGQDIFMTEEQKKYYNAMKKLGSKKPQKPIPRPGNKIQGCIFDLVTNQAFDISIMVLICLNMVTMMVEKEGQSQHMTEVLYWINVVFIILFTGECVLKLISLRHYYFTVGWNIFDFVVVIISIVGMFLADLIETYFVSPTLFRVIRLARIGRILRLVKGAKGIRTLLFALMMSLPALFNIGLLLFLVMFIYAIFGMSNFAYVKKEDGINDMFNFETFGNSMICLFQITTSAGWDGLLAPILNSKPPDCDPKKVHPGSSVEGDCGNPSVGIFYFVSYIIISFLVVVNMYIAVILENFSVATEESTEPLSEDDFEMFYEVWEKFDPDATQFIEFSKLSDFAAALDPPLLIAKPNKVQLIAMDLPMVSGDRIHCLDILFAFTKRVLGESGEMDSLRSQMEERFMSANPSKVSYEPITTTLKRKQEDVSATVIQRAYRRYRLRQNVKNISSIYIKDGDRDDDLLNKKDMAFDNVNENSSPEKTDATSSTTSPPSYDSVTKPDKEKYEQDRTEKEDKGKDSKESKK

For orientation: inhibition means the change of the read-out against control, counted positive when it falls. In the case of `Cc1cccc(C)c1NC(=O)C[N+]1(CCOC(=O)c2ccccc2Cl)CCCCCC1` [Compound 1, 1-(2-((2-chlorobenzoyl)oxy)ethyl)-1-(2-((2,6-dimethylphenyl)amino)-2-oxoethyl)azepan-1-ium bromide], on NaV1.7 [1], the inhibition at 0.32 µM was over 70%. Also, the inhibition at 10 µM on NaV1.7 [2] is 40 to 70%.
